Reference: patent publication EP1282725B1, “METHODS OF MODULATING FUNCTIONS OF POLYPEPTIDE GalNAc TRANSFERASES AND OF SCREENING SUBSTANCES THEREFOR” (Glycozym ApS, priority 2000, dated 2001)

Key:
GalNAc-T2 [1] = assay: Inhibition of GalNAc-T2 activities with Muc2 acceptor substrate; assay type: biochemical, human; settings: for Activity in the presence of inhibitors: inhibitors 230 mM, Muc2 acceptor
Method: (§1) Products were quantified by scintillation counting after chromatography on Dowex-1, octadecyl silica cartridges (Bakerbond), or HPLC (PC3.2/3 or mRPC C2/C18 SC2.1/10 Pharmacia, Smart System). […] Glycopeptides were purified on Supelclean LC-18 columns (1 ml, Supelco), and the number of GalNAc residues incorporated evaluated by MALDI-TOF mass spectrometry. The enzyme sources used were semipurified as previously described by successive sequential ion-exchange chromatographies on Amberlite (IRA95, Sigma) or DEAE Sephacel (Pharmacia), S-Sepharose Fast Flow (Pharmacia), and Mini-S^TM (PC 3.2/3, Pharmacia) using the Smart System (Pharmacia) (28). Secreted GalNAc-T4 was obtained from a stably transfected CHO line ([…]) (8) grown in roller bottles in HAMS F12 supplemented with 10 % Fetal Bovine Serum. The experiments illustrated in Fig. 1 was performed with recombinant secreted GalNAc-T4 obtained from a stably transfected CHO line (8). Experiments illustrated in Figs. 2 and 3 were performed with secreted GalNAc-T4 expressed in High Five cells grown in serum-free medium (8). Structural analysis of glycopeptides were performed by a combination of PFPA (pentafluoropropionic acid) hydrolysis and MALDI-TOF mass spectrometry as previously described (40). Secreted GalNAc-T7 was obtained from infected High Five^TM cells grown in serum-free medium (Invitrogen) in upright roller bottles shaken 140 rpm in waterbaths at 27 °C. GalNAc-T7 was not purified by Mini-S as the yields from cationic chromatography were low due to its low pI (6.4). […] Galactosyl transferring activities of GalNAc-T1, -T2, and -T3, were assayed with a panel of acceptor peptides in standard reaction mixtures containing 100 μM UDP-Gal instead of UDP-GalNAc.

GalNAc-T4 [2] = assay: Inhibition of the glycosylation dependent (GalNAc-glycopeptide) activity of GalNAc-T4, time-course MALDI-TOF; assay type: biochemical, human
Method: (§2) MALDI-TOF time-course in terminal reactions were performed in reactions of 25 µl containing 2.5 nmol acceptor (glyco)peptide, 40 nmol UDP-GalNAc, and 0.4 µg GalNAc-T4. Sampling of reactions (1 µl) were purified by nano-scale reversed-phase chromatography (Poros R3, PerSeptive Biosystem) and applied directly to the probe with matrix (41). The amount of GalNAc-transferase added was adjusted so that the reaction with the appropriate peptide was near completion in six hours. Reactions were incubated at 37°C in a shaker bath. At times 0, 2 hours, and 16 hours a 1 µl aliquot was taken and purified. Mass spectra were acquired on either Voyager-DE mass spectrometer equipped with delayed extraction (Perseptive Biosystem Inc.). The matrix used was 2,5-dihydroxybenzoic acid (10 mg/ml, Hewlett-Packard) dissolved in a 2:1 mixture of 0.1% trifluoroacetic acid in 30 % aqueous acetonitrile (Rathburn Ltd.).
Quantification of purified proteins was done by Coomassie stained SDS-PAGE and titration of immunoreactivity with the monoclonal antibody, UH6(4G2) (8). […] Wild-type GalNAc-T4 and mutant GalNAc-T4, GalNAc-T4^459H, were analysed with unglycosylated peptides (represented by PSGL-1) or GalNAc glycosylated glycopeptides (represented by GalNAc3TAP25V21) in reactions of 25 µl containing 2.5 nmol acceptor (glyco)peptide, 40 nmol UDP-GalNAc, and 0.4 µg GalNAc-T4. Time-course assays were motioned by MALDI-TOF. Sampling of reactions (1 µl) were purified by nano-scale reversed-phase chromatography (Poros R3, PerSeptive Biosystem) and applied directly to the probe with matrix. Evaluation of inhibition of the glycopeptide specificity of wild-type GalNAc-T4 with free sugars was performed to establish if the lectin domain recognized carbohydrate. […] Further, analysis was performed with 10 mM α-D-GalNAc-1-benzyl, αGlcNAc-benzyl, and fully occupied GalNAc-glycopeptide, GalNAc6TAP25, at 5 mM.

GalNAc-T3 = assay: Inhibition of GalNAc-T3 activities with EA2 acceptor substrate; assay type: biochemical, human; settings: for Activity in the presence of inhibitors: inhibitors 230 mM, EA2 acceptor
Method: as §1

GalNAc-T2 [3] = assay: Direct binding to free GalNAc, conventional binding assays; design: species or system human
[4] = tested on: GalNAc-T4^459D or -T4^459H; assay: Glycosylation independent activity of GalNAc-T4 wild-type and lectin mutant with naked peptides, MALDI-TOF; assay type: biochemical, human; settings: naked peptides (PSGL-1); free sugars
Method: as §2
Quantification of purified proteins was done by Coomassie stained SDS-PAGE and titration of immunoreactivity with the monoclonal antibody, UH6(4G2) (8). […] Wild-type GalNAc-T4 and mutant GalNAc-T4, GalNAc-T4^459H, were analysed with unglycosylated peptides (represented by PSGL-1) or GalNAc glycosylated glycopeptides (represented by GalNAc3TAP25V21) in reactions of 25 µl containing 2.5 nmol acceptor (glyco)peptide, 40 nmol UDP-GalNAc, and 0.4 µg GalNAc-T4. […]

GalNAc-T4 [5] = assay: Direct binding to free GalNAc, conventional binding assays; design: species or system human
GalNAc-T7 = assay: Inhibition of GalNAc-T7 activity with GalNAc2-3EA2 substrate; assay type: biochemical, human; settings: for Activity in the presence of inhibitors: inhibitors 5 mM, GalNAc2-3EA2 substrate, without inhibitor 6.8; for inhibition of the activity of GalNAc-T7 with GalNAc2-3EA2: 5 mM concentrations
Method: Standard reaction mixtures (50 µl final volume) contained 25 mM cocadylate (pH 7.4), 10 mM MnCl2, 0.25% Triton X-100, 200 µM UDP-[^14C]-GalNAc (2,000 cpm/nmol) (Amer-sham), 200-500 µM acceptor peptides. Products were quantified by scintillation counting after chromatography on Dowex-1, octadecyl silica cartridges (Bakerbond), or HPLC (PC3.2/3 or mRPC C2/C18 SC2.1/10 Pharmacia, Smart System). […] Glycopeptides were purified on Supelclean LC-18 columns (1 ml, Supelco), and the number of GalNAc residues incorporated evaluated by MALDI-TOF mass spectrometry. The enzyme sources used were semipurified as previously described by successive sequential ion-exchange chromatographies on Amberlite (IRA95, Sigma) or DEAE Sephacel (Pharmacia), S-Sepharose Fast Flow (Pharmacia), and Mini-S™ (PC 3.2/3, Pharmacia) using the Smart System (Pharmacia) (28). Secreted GalNAc-T4 was obtained from a stably transfected CHO line (CHO/GalNA-T4/21A) (8) grown in roller bottles in HAMS F12 supplemented with 10 % Fetal Bovine Serum. The experiments illustrated in Fig. 1 was performed with recombinant secreted GalNAc-T4 obtained from a stably transfected CHO line (8). Experiments illustrated in Figs. 2 and 3 were performed with secreted GalNAc-T4 expressed in High Five cells grown in serum-free medium (8). Structural analysis of glycopeptides were performed by a combination of PFPA (pentafluoropropionic acid) hydrolysis and MALDI-TOF mass spectrometry as previously described (40). Secreted GalNAc-T7 was obtained from infected High Five™ cells grown in serum-free medium (Invitrogen) in upright roller bottles shaken 140 rpm in waterbaths at 27 °C. GalNAc-T7 was not purified by Mini-S as the yields from cationic chromatography were low due to its low pI (6.4).
GalNAc-T7 activity was analysed with GalNAc glycosylated glycopeptides (represented by GalNAc2-3EA2 (7)) in reactions of 25 µl containing 2.5 nmol acceptor (glyco)peptide, 40 nmol UDP-GalNAc, and purified GalNAc-T7. […] Further, analysis was performed with 10 mM α-D-GalNAc-1-benzyl, αGlcNAc-benzyl, and fully occupied GalNAc-glycopeptide, GalNAc6TAP25, at 5 mM.

[6] = donor UDP-Gal, without inhibitor 90
[7] = donor UDP-GalNAc, without inhibitor 340
[8] = […] free sugars, GalNAc3TAP25V21 glycopeptide substrate
[9] = donor UDP-Gal, without inhibitor 6.3
[10] = donor UDP-GalNAc, without inhibitor 34

Compound	Activity in the presence of inhibitors (GalNAc-T2 [1]; [6]) [nmol/min/mL]	Activity in the presence of inhibitors (GalNAc-T2 [1]; [7]) [nmol/min/mL]	inhibition of the glycosylation dependent specificity of GalNAc-T4 (GalNAc-T4 [2]; [8])	Activity in the presence of inhibitors (GalNAc-T3; [9]) [nmol/min/mL]	Activity in the presence of inhibitors (GalNAc-T3; [10]) [nmol/min/mL]	Activity in the presence of inhibitors (GalNAc-T7) [nmol/min/mL]	inhibition of the activity of GalNAc-T7 with GalNAc2-3EA2 (GalNAc-T7)	also measured
CC(=O)N[C@H]1C(O)O[C@H](CO)[C@@H](O)[C@@H]1O (stereo partly shown) [GlcNAc]	68	310	failed to show significant inhibition	7	32			
CC(=O)N[C@H]1C(O)O[C@H](CO)[C@H](O)[C@@H]1O (stereo partly shown) [GalNAc, N-acetylgalactosamine]	24	300		2.5	35			direct binding of GalNAc-T2 to free GalNAc (GalNAc-T2 [3]): could not detect direct binding; inhibition of the galactosyltransferase activity with Muc2 substrate (GalNAc-T2 [1]; donor UDP-Gal): selectively inhibited; effect on the glycosylation independent activities of GalNAc-T4 [4]: no effect on the general catalytic function of the enzyme; inhibition of the glycosylation dependent specificity of GalNAc-T4 (GalNAc-T4 [2]; 50 mM sugars (not shown)): approximately 50%; direct binding of GalNAc-T4 to free GalNAc (GalNAc-T4 [5]): could not detect direct binding; inhibition of the galactosyltransferase activity of GalNAc-T3 (GalNAc-T3; donor UDP-Gal): selectively inhibited
OC[C@H]1O[C@H](OCc2ccccc2)[C@@H](O)[C@@H](O)[C@@H]1O [bz-αMan]						6.7		
CC(=O)N[C@H]1[C@@H](OCc2ccccc2)O[C@H](CO)[C@H](O)[C@@H]1O[C@@H]1O[C@H](CO)[C@H](O)[C@H](O)[C@H]1O [Galβ1-3GaINAcα1-bz, Galβ1-3GalNAcα1-benzyl]						4.5	significantly inhibited	inhibition of GalNAc-T4 glycopeptide activity compared to GalNAc (GalNAc-T4 [2]; concentration not given): neither Gal nor Galβ1-3GalNAcα1-benzyl produced significant inhibition
CC(=O)N[C@H]1[C@@H](OCc2ccccc2)O[C@H](CO)[C@H](O)[C@@H]1O [bz-αGalNAc, α-D-GalNAc-1-benzyl]						5.4	significantly inhibited	
C[C@@H]1OC(O)[C@@H](O)[C@H](O)[C@@H]1O (stereo partly shown) [Fuc]	89	370	failed to show significant inhibition	6.5	34			
OC[C@H]1O[C@@H](OCc2ccccc2)[C@H](O)[C@@H](O)[C@H]1O [bz-βGal]						4.7	significantly inhibited	
CC(=O)N[C@H]1[C@@H](OCc2ccccc2)O[C@H](CO)[C@@H](O)[C@@H]1O [αGlcNAc-benzyl]								inhibition of the glycosylation dependent specificity of GalNAc-T4 (GalNAc-T4 [2]; 10 mM benzyl glycoside): did not inhibit catalytic activity
OC[C@H]1OC(O)[C@H](O)[C@@H](O)[C@H]1O (stereo partly shown) [Gal]	89	300	failed to show significant inhibition	7.3	33			
